≈ marks a conversion by molar mass, not a printed value.
Legend:
MNV-1 = MNV-1 infection of RAW264.7 cells and plaque assay; type: cell-based, murine norovirus; conditions: RAW264.7 pre-treated 0.5 h with 2.5 µM; MOI 5; 8 h infection; plaque assay
Method: RAW264.7 cells were plated at a density of 5×10^5 cells/ml in each well of a 12-well plate and allowed to attach overnight. The following day, cells were incubated with either 5 µM WP1130 or 2.5 µM compound 9, for 30 min at 37°C. After incubation, cells were placed on ice for 1 hour where they were infected with MNV-1 at an MOI of 5. Cells were then washed three times with ice-cold PBS. Cells treated with compound 9 received media alone after washing, while media containing WP1130 or DMSO was added back to cells and the infection was allowed to proceed for 8 hours. Cells were freeze-thawed twice, and viral titers were determined by plaque assay as previously described.

[1] = tested on: ubiquitinated proteins (DUB activity) in RAW264.7 cells; experiment: Anti-ubiquitin immunoblot of RAW264.7 whole-cell lysates; type: cell-based, murine; conditions: 2.5 µM, uninfected RAW264.7 cells, treatment 0.5 h to 6 h
Method: RAW264.7 cells were cultured at an initial density of 4×10^6 cells per 6-well plate and allowed to adhere overnight. Macrophages were treated with 2.5 µM compound 9 for the indicated period of time. To obtain whole-cell lysates, cells were lysed in cell lysis buffer (10 mM Tris pH 8, 150 mM NaCl, 1% NP-40, 10 mM EDTA pH 8, 1 mM DTT and 1X protease inhibitors), incubated for 15 min on ice and briefly sonicated. Samples were diluted in 5X concentrated sample buffer containing β-mercaptoethanol and denatured at 95°C for 10 min. The samples were separated by SDS-PAGE on an 8% acrylamide gel and transferred to polyvinyldene fluoride membrane (PVDF, Millipore). Immunodetection was performed using an anti-ubiquitin monoclonal antibody (P4D1 clone, Santa Cruz), according to manufacturer’s instructions.

Norwalk virus replicon = experiment: HuNoV (Norwalk virus) replicon assay in HG23 cells, qRT-PCR; type: cell-based, human norovirus; conditions: 2.5 µM for 2 hours, genomes quantitated after 24 h by qRT-PCR, normalized to DMSO
Method: HG23 cells containing the Norwalk virus replicon plasmid under G418-selection were plated at 5×10^5 cells per well in 12-well plates and allowed to attach overnight. Afterwards, media was aspirated and replaced with fresh media containing DMSO, 5 µM WP1130, or 2.5 µM compound 9. DMSO and WP1130 remained on the cells for 24 hours, whereas compound 9 was removed after 2 hours. At the end of the experiment, media was aspirated, cells were washed once with PBS and total cellular RNA was isolated using the QIAGEN RNeasy Mini kit (QIAGEN, Valencia, CA). Following the manufacturer’s protocol, RNA was subjected to two rounds of DNase treatment. First, an on-column RNase-free DNase treatment (QIAGEN, Valencia, CA) was performed for 15 minutes at room temperature. After elution, another round of DNase treatment was performed using the DNA-free DNase removal kit (Ambion, Austin, TX). RNA concentration and purity were measured using a spectrophotometer, calculating the 260/280 ratio. RNA integrity (as well as the absence of DNA contamination) was confirmed by One-Step Reverse Transcription-Polymerase Chain Reaction (RT-PCR) using “No RT” controls. Norwalk virus genomes were then quantitated by qRT-PCR as previously described.

L. monocytogenes [2] = experiment: Bactericidal test on exponential-phase bacteria, 2 h at 4°C; type: cell-based, Listeria monocytogenes 10403S; conditions: concentrations up to 5 µM, exponential growth phase
Method: (§1) For bacterial growth curve in broth culture, an overnight culture of L. monocytogenes was back-diluted 1∶50 into BHI broth in the presence of 5 µM of compounds 1 to 4, 2.5 µM of compound 9 or equivalent volume of DMSO and incubated statically at 30°C for up to 8 h. At indicated time points (0, 2, 4, 6 and 8 h), a 50 µl-aliquot of bacteria was serially diluted and plated on LB agar to determine the number of CFU. To test the bactericidal properties of compound 9, an overnight culture of L. monocytogenes was back-diluted 1∶50 into BHI broth and allowed to grow at 37°C with shaking until an optical density at 600 nm (OD600) of ∼0.6–0.7 was obtained. Bacteria were then exposed to 1, 2.5 or 5 µM of compound 9 or equivalent volume of DMSO for 2 h at 4°C. After incubation, bacteria were serially diluted and plated on LB agar to determine CFU.

L. monocytogenes [3] = experiment: Bacterial growth curve in BHI broth culture; type: cell-based, Listeria monocytogenes 10403S; conditions: 2.5 µM in BHI broth
Method: as §1

[4] = Aqueous kinetic solubility; type: physicochemical
RAW264.7 cells = experiment: WST-1 cell viability assay, conditions mimicking the bacterial infection protocol; type: cell-based, murine; conditions: 2.5 µM, 0.5 h pre-treatment, then 8 h
Method: For cell viability assays in conditions that mimicked the bacterial infection protocol, RAW264.7 cells were cultured at an initial density of 4×10^6 cells per 96-well plate. Cells were treated with 2.5 or 5 µM DUB inhibitors dissolved in DMSO for 0.5 h or 1 h or with equivalent volume of DMSO. DUB inhibitors were removed after treatment by washing three times with PBS, and cells were incubated in culture media for 6.5 h at 37°C. The WST-1 reagent (Roche, San Francisco, CA), which measures mitochondrial dehydrogenase activity, was diluted 1 in 10 in media and cells were incubated at 37°C for an additional 1.5 h. The optical density at 440 nm (OD440) and 600 nm (OD600) was determined and results were normalized to DMSO-treated cells.

Question: With `CCCC(NC(=O)/C(C#N)=C/c1nc(Cl)ccc1Cl)c1ccc(OCCN2CCOCC2)cc1` (stereo not drawn) [Compound 9] as the compound, how does the “decrease in MNV-1 titers compared to DMSO-treated cells” value (MNV-1) read?
Answer: more than 2.5 logs

Question: And the “accumulation of ubiquitinated proteins (immunoblot)” value [1]?
Answer: ubiquitinated proteins accumulated as soon as 0.5 h

Question: What about the “reduction of detectable Norwalk virus genomes” value (Norwalk virus replicon) of the same compound?
Answer: 84.7%

Question: And the bactericidal activity (L. monocytogenes [2])?
Answer: No bactericidal activity

Question: And the “effect on overall CFU per ml by 8 h in broth culture” value (L. monocytogenes [3])?
Answer: did not significantly affect overall CFU per ml by 8 h

Question: What about the “effect on growth rate in axenic broth culture” value (L. monocytogenes [3]; up to 8 h) of the same compound?
Answer: modest decrease in the growth rate

Question: And the solubility kinetic ([4]; aqueous (not further specified))?
Answer: ~20 µM (≈ 10.1 µg/mL)

Question: And the “improvement in solubility vs WP1130” value ([4]; compound 9 compared to WP1130)?
Answer: > 6 fold

Question: And the “cellular toxicity (WST-1 viability)” value (RAW264.7 cells)?
Answer: little cellular toxicity
